Measurements from ChEMBL document CHEMBL1129258, “Synthesis and structure-activity relationships of 2-pyridones: a novel series of potent DNA gyrase inhibitors as antibacterial agents” (J Med Chem, 1996).
≈ marks a conversion by molar mass, not a printed value.

How the values were obtained:
[1] = Maximum plasma concentration in rats after an oral dose of 5 mg/kg; conditions: rat
[2] = tested on: Streptococcus pneumoniae; assay: In vivo efficacy against Strep. administered; type: functional; conditions: Streptococcus pneumoniae; read-out: ED50
[3] = tested on: Streptococcus pyogenes; assay: In vitro antibacterial activity against gram-positive organism Streptococcus pyogenes EES61; type: functional; conditions: Streptococcus pyogenes; read-out: MIC
[4] = in vivo; conditions: rat, plasma, po, 5 mg/kg
[5] = in vivo; conditions: rat, po, 5 mg/kg
Description: Oral bioavailability in rat (dose 5 mg/kg)

[6] = tested on: Streptococcus pneumoniae; assay: (§1) In vivo efficacy against Strep. administration; type: functional
[7] = tested on: Pseudomonas aeruginosa; assay: In vivo efficacy against Pseudomonas aeruginosa 5007 by orally administered.; type: functional; conditions: Pseudomonas aeruginosa, po; read-out: ED50
[8] = (§2) In vitro antibacterial activity against gram-negative organism Pseudomonas aeruginosa 5007; type: functional; conditions: Pseudomonas aeruginosa; read-out: MIC
[9] = In vitro antibacterial activity against gram-negative organism Pseudomonas aeruginosa DPHD-2862; type: functional; conditions: Pseudomonas aeruginosa; read-out: MIC
[10] = In vivo efficacy against Pseudomonas aeruginosa 5007 after subcutaneous administration; type: functional
[11] = biological target: T1, DNA gyrase (Escherichia coli) (UniProt P0AES6+P0AES4); assay: In vitro antibacterial activity against gram-negative organism […] ATCC 13048; type: functional; conditions: Enterobacter aerogenes
[12] = biological target: T1, DNA gyrase (Escherichia coli); assay: In vitro antibacterial activity against gram-positive organism Enterococcus faecium ATCC 8043; type: functional
[13] = biological target: T1, DNA gyrase (Escherichia coli); assay: In vitro antibacterial activity against gram-negative organism Klebsiella pneumoniae ATCC 8045; type: functional
[14] = biological target: T1, DNA gyrase (Escherichia coli); conditions: Escherichia coli K-12
Description: Concentration which causes 50% of the gyrase (Escherichia coli H560)-mediated maximal DNA cleavage.

[15] = biological target: T2, DNA gyrase (Staphylococcus aureus) (UniProt P0A0K8+P20831); assay: In vitro antibacterial activity against gram-positive organism Staphylococcus aureus 1775; type: functional
[16] = biological target: T2, DNA gyrase (Staphylococcus aureus); assay: In vitro antibacterial activity against gram-positive organism Staphylococcus aureus ATCC 6538p; type: functional
[17] = biological target: T2, DNA gyrase (Staphylococcus aureus); assay: In vitro antibacterial activity against gram-positive organism Staphylococcus aureus NCTC-10649M; type: functional
[18] = tested on: Staphylococcus aureus; assay: (§3) In vivo efficacy against Staphylococcus aureus NCTC-10649M after oral administration; type: functional
[19] = biological target: T2, DNA gyrase (Staphylococcus aureus); assay: (§4) In vivo efficacy against Staphylococcus aureus NCTC-10649M after subcutaneous administration; type: functional, organism-based
[20] = biological target: T1, DNA gyrase (Escherichia coli); assay: In vivo efficacy against Escherichia coli JUHL after oral administration; type: functional, organism-based; conditions: Escherichia coli K-12
[21] = biological target: T1, DNA gyrase (Escherichia coli); assay: In vitro antibacterial activity against gram-negative organism Prov. stuartii CMX-640; type: functional; conditions: Providencia stuartii
[22] = biological target: T1, DNA gyrase (Escherichia coli); assay: In vitro antibacterial activity against gram-positive organism Streptococcus bovis A-5169; type: functional; conditions: Streptococcus equinus
[23] = biological target: T1, DNA gyrase (Escherichia coli); assay: In vitro antibacterial against gram-negative organism Escherichia coli JUHL; type: functional; conditions: Escherichia coli K-12
[24] = biological target: T1, DNA gyrase (Escherichia coli); assay: In vivo efficacy against Escherichia coli JUHL by subcutaneous administration; type: functional, organism-based; conditions: Escherichia coli K-12
[25] = tested on: Pseudomonas aeruginosa; assay: In vivo efficacy against Pseudomonas aeruginosa 5007 following p.o. administration.
[26] = tested on: Streptococcus equinus; assay: In vitro antibacterial activity against gram-positive organism Strep. bovis A-5169; type: functional
[27] = tested on: Streptococcus pneumoniae; assay: as §1; type: functional; remark: listed apart in the source
[28] = biological target: T2, DNA gyrase (Staphylococcus aureus); assay: as §3; type: functional, organism-based
[29] = physchem; conditions: phosphate buffer, pH 7.4
Description: Aqueous solubility in pH 7.4 phosphate buffer (0.05 M) at 37 degree C

[30] = tested on: Pseudomonas aeruginosa; assay: as §2; type: functional
[31] = tested on: Staphylococcus aureus; assay: In vivo efficacy against Staphylococcus aureus NCTC-10649M by orally administered.; type: functional
[32] = tested on: Escherichia coli; assay: In vivo efficacy against Escherichia coli JUHL by subcutaneously administered.; type: functional; conditions: sc
[33] = tested on: Escherichia coli; assay: In vivo efficacy against Escherichia coli JUHL by orally administered.; type: functional; conditions: po
[34] = tested on: Streptococcus pneumoniae; assay: In vivo efficacy against Stap. administered.; type: functional
[35] = tested on: Pseudomonas aeruginosa; assay: In vivo efficacy against Pseudomonas aeruginosa 5007 by subcutaneously administered.; type: functional; conditions: sc
[36] = tested on: Staphylococcus aureus; assay: In vivo efficacy against Staphylococcus aureus NCTC-10649M by subcutaneously administered.; type: functional
[37] = tested on: Streptococcus pneumoniae; assay: as §1; type: functional; remark: listed apart in the source
[38] = tested on: Staphylococcus aureus; assay: as §4; type: functional; conditions: sc
[39] = in vivo; conditions: rat, plasma, po, 5 mg/kg; remark: listed apart in the source
[40] = tested on: Enterococcus faecium; assay: In vitro antibacterial activity against gram-positive organism Enterococcus faecium ATCC 8043
[41] = Streptococcus pneumoniae, read-out: ED50
[42] = Pseudomonas aeruginosa, sc, read-out: ED50

Row | SMILES | Cmax [1] | MIC [3] | MIC [8] | MIC [9] | MIC [11] | MIC [12] | MIC [13] | MIC [15] | MIC [16] | MIC [17] | ED50 [19] | ED50 [20] | MIC [21] | MIC [22] | MIC [23] | ED50 [24] | ED50 [25] | ED50 [28] | CC50 [14] | ED50 [10, 42] | further results
1 | Cc1c(N2CC[C@@H]([C@@H](C)N)C2)c(F)cn2c(=O)c(C(=O)O)cc(C3CC3)c12 |  | 0.005 µg/mL (≈ 0.0134 µM) | 0.2 µg/mL (≈ 0.536 µM) | 6.2 µg/mL (≈ 16.6 µM) | 0.01 µg/mL (≈ 0.0268 µM) | 0.01 µg/mL (≈ 0.0268 µM) | 0.001 µg/mL (≈ 0.00268 µM) | 0.39 µg/mL (≈ 1.04 µM) | 0.002 µg/mL (≈ 0.00536 µM) | 0.002 µg/mL (≈ 0.00536 µM) | < 0.2 mg/kg | 5.7 mg/kg | 0.78 pug ml-1 | 0.01 µg/mL (≈ 0.0268 µM) | 0.001 µg/mL (≈ 0.00268 µM) | 0.5 mg/kg | 24.4 mg/kg |  | 0.4 µg/mL (≈ 1.07 µM) | 5.4 mg/kg | ED50 [18]: 1.1 mg/kg
2 | Cc1c(N2CC[C@@H](O)C2)c(F)cn2c(=O)c(C(=O)O)cc(C3CC3)c12 |  |  | 0.78 µg/mL (≈ 2.25 µM) | 25 µg/mL (≈ 72.2 µM) | 0.2 µg/mL (≈ 0.577 µM) | 0.2 µg/mL (≈ 0.577 µM) | 0.02 µg/mL (≈ 0.0577 µM) | 1.56 µg/mL (≈ 4.5 µM) | 0.02 µg/mL (≈ 0.0577 µM) | 0.02 µg/mL (≈ 0.0577 µM) | 6.1 mg/kg |  | 0.78 µg/mL (≈ 2.25 µM) |  | 0.1 µg/mL (≈ 0.289 µM) |  |  | 11.2 mg/kg |  |  | MIC [26]: 0.2 µg/mL (≈ 0.577 µM); ED50 [27]: > 2 mg/kg
3 | Cc1c(N2CCC(N)C2)c(F)cn2c(=O)c(/C(O)=C/[N+](=O)[O-])cc(C3CC3)c12 (configuration not stated) |  | 0.2 µg/mL (≈ 0.515 µM) | 0.39 µg/mL (≈ 1 µM) | 6.2 µg/mL (≈ 16 µM) | 0.1 µg/mL (≈ 0.257 µM) | 0.39 µg/mL (≈ 1 µM) | 0.02 µg/mL (≈ 0.0515 µM) | 6.2 µg/mL (≈ 16 µM) | 0.05 µg/mL (≈ 0.129 µM) | 0.1 µg/mL (≈ 0.257 µM) |  |  | 1.56 µg/mL (≈ 4.02 µM) | 0.2 µg/mL (≈ 0.515 µM) | 0.02 µg/mL (≈ 0.0515 µM) |  |  |  | 3 µg/mL (≈ 7.72 µM) |  | ED50 [31]: 25.2 mg/kg; ED50 [32]: > 5 mg/kg; ED50 [33]: > 10 mg/kg; ED50 [34]: > 8 mg/kg; ED50 [35]: 3.2 mg/kg; ED50 [36]: > 12 mg/kg
4 | Cc1c(N2CCC(O)C2)c(F)cn2c(=O)c(C(=O)O)cc(C3CC3)c12 (configuration not stated) | 1420 ng/mL | 0.05 µg/mL (≈ 0.144 µM) | 0.2 µg/mL (≈ 0.577 µM) | 6.2 µg/mL (≈ 17.9 µM) | 0.02 µg/mL (≈ 0.0577 µM) | 0.05 µg/mL (≈ 0.144 µM) | 0.02 µg/mL (≈ 0.0577 µM) | 0.2 µg/mL (≈ 0.577 µM) | 0.01 µg/mL (≈ 0.0289 µM) | 0.005 µg/mL (≈ 0.0144 µM) |  | > 5 mg/kg | 0.2 µg/mL (≈ 0.577 µM) | 0.05 µg/mL (≈ 0.144 µM) | 0.02 µg/mL (≈ 0.0577 µM) | > 1 mg/kg | > 50 mg/kg | 15.2 mg/kg |  | > 8 mg/kg | bioavailability [5]: 50%; ED50 [6]: 41.5 mg/kg; ED50 [37]: 7.4 mg/kg; ED50 [38]: 11.3 mg/kg; half-life [39]: 5.4 h
5 | NC1CCN(c2nc3c(-c4ccc(F)cc4F)cc(C(=O)O)c(=O)n3cc2F)C1 (configuration not stated) |  | 0.39 µg/mL (≈ 0.965 µM) | 0.39 µg/mL (≈ 0.965 µM) | 100 µg/mL (≈ 247 µM) | 0.05 µg/mL (≈ 0.124 µM) |  | 0.02 µg/mL (≈ 0.0495 µM) | > 100 µg/mL | 0.1 µg/mL (≈ 0.247 µM) | 0.1 µg/mL (≈ 0.247 µM) | 4.4 mg/kg | 5.6 mg/kg | 1.56 µg/mL (≈ 3.86 µM) | 1.56 µg/mL (≈ 3.86 µM) | 0.02 µg/mL (≈ 0.0495 µM) | 1 mg/kg | 42.1 mg/kg | 12 mg/kg | 0.5 µg/mL (≈ 1.24 µM) | 10.3 mg/kg | MIC [40]: 0.78 µg/mL (≈ 1.93 µM)

Continued, in another order:

Row | Cmax [1] | MIC [3] | MIC [8] | MIC [9] | MIC [11] | MIC [12] | MIC [13] | MIC [15] | MIC [16] | MIC [17] | ED50 [19] | ED50 [20] | MIC [21] | MIC [22] | MIC [23] | ED50 [24] | ED50 [25] | ED50 [28] | SMILES | CC50 [14] | ED50 [10, 42] | further results
6 | 1130 ng/mL | 0.05 µg/mL (≈ 0.135 µM) | 0.39 µg/mL (≈ 1.05 µM) | 6.2 µg/mL (≈ 16.7 µM) |  |  |  |  |  |  |  |  |  |  |  |  |  |  | Cc1c(N2C[C@@H]3CCN[C@@H]3C2)c(F)cn2c(=O)c(C(=O)O)cc(C3CC3)c12 (stereo in doubt; 45o) |  |  | ED50 [2]: 4.5 mg/kg; half-life [4]: 4.1 h; bioavailability [5]: 62%; ED50 [6, 41]: 7.6 mg/kg; ED50 [7]: 39.9 mg/kg; ED50 [10]: 6.4 mg/kg
7 | 330 ng/mL | 0.1 µg/mL (≈ 0.269 µM) | 0.39 µg/mL (≈ 1.05 µM) | 3.1 µg/mL (≈ 8.35 µM) | 0.05 µg/mL (≈ 0.135 µM) | 0.1 µg/mL (≈ 0.269 µM) | 0.02 µg/mL (≈ 0.0538 µM) | 6.2 µg/mL (≈ 16.7 µM) | 0.05 µg/mL (≈ 0.135 µM) | 0.05 µg/mL (≈ 0.135 µM) | 1.8 mg/kg | 3.6 mg/kg | 1.56 µg/mL (≈ 4.2 µM) | 0.1 µg/mL (≈ 0.269 µM) | 0.001 µg/mL (≈ 0.00269 µM) | 1.1 mg/kg | 42.8 mg/kg | 3.6 mg/kg | Cc1c(N2CC[C@@H]3CNC[C@@H]32)c(F)cn2c(=O)c(C(=O)O)cc(C3CC3)c12 | 0.4 µg/mL (≈ 1.08 µM) | > 8 mg/kg | ED50 [2]: 6.4 mg/kg; half-life [4]: 5.7 h; bioavailability [5]: 41%; ED50 [6, 41]: 9.5 mg/kg; solubility [29]: 1940 µg/mL (≈ 5220 µM)
8 |  | 0.01 µg/mL (≈ 0.0269 µM) |  | 3.1 µg/mL (≈ 8.35 µM) | 0.05 µg/mL (≈ 0.135 µM) | 0.05 µg/mL (≈ 0.135 µM) | 0.005 µg/mL (≈ 0.0135 µM) | 0.39 µg/mL (≈ 1.05 µM) | 0.002 µg/mL (≈ 0.00538 µM) | 0.02 µg/mL (≈ 0.0538 µM) | 1.2 mg/kg |  | 0.39 µg/mL (≈ 1.05 µM) |  | 0.01 µg/mL (≈ 0.0269 µM) |  |  |  | Cc1c(N2CC[C@@]3(C[C@@H]3N)C2)c(F)cn2c(=O)c(C(=O)O)cc(C3CC3)c12 |  |  | ED50 [18]: 6.3 mg/kg; MIC [30]: 0.39 µg/mL (≈ 1.05 µM)
